Results as given in US10087139B2, “3-Phenylisoserine derivative production method” (Toray Fine CHhemicals Co., Ltd., priority 2015, dated 2018).

Assays:
[1] = Solubility of N-protected-3-phenylisoserine in the extraction solvents; format: physicochemical
Protocol: (§1) The same operation as in Example 1 was carried out except that toluene was used instead of tetrahydrofuran as the extraction solvent in the extraction step of Example 1. As a result, (2R,3S)—N-benzoyl-3-phenylisoserine as an intermediate could be hardly extracted into the organic layer. To evaluate the performance of the extraction solvent, solubility of (2R,3S)—N-benzoyl-3-phenylisoserine was investigated for comparison.
as §1, with “cyclopentyl methyl ether” for “toluene”
as §1, with “methyl-tert-butyl ether” for “toluene”
as §1, with “acetonitrile” for “toluene”

[2] = as above; format: physicochemical; details: solvent 1,2-dimethoxyethane
[3] = solvent cyclopentyl methyl ether
[4] = solvent methyl-tert-butyl ether

COC(=O)[C@H](O)[C@@H](NC(=O)OC(C)(C)C)c1ccccc1 [Example 2, (2R,3S)—N-tert-butoxycarbonyl-3-phenylisoserine methyl ester]
melting point: 131 to 133 °C

O=C(N[C@@H](c1ccccc1)[C@@H](O)C(=O)O)c1ccccc1 [(2R,3S)—N-benzoyl-3-phenylisoserine]
Solubility (20° C.) ([1]; solvent acetonitrile): 2.2 wt % | Solubility (40° C.) ([1]; solvent acetonitrile): 2.9 wt % | Solubility (20° C.) [1, 3]: 0.4 wt % | Solubility (40° C.) [1, 3]: 0.4 wt % | Solubility (20° C.) [1, 4]: 0.2 wt % | Solubility (40° C.) [1, 4]: 0.4 wt % | Solubility (20° C.) ([1]; solvent tetrahydrofuran): 9.2 wt % | Solubility (40° C.) ([1]; solvent tetrahydrofuran): 11.6 wt % | Solubility (20° C.) ([1]; solvent toluene): <0.1 wt % | Solubility (40° C.) ([1]; solvent toluene): <0.1 wt % | Solubility (20° C.) ([2]; 20° C.): 12.7 wt % | Solubility (40° C.) ([2]; 40° C.): 13.6 wt %

COC(=O)[C@H](O)[C@@H](NC(=O)c1ccccc1)c1ccccc1 [Example 1, (2R,3S)—N-benzoyl-3-phenylisoserine methyl ester]
melting point: 183 to 185 °C

CC(C)(C)OC(=O)NC(c1ccccc1)C(O)C(=O)O (stereo not shown) [N-tert-butoxycarbonyl-3-phenylisoserine]
Solubility (20° C.) ([1]; solvent tetrahydrofuran): 10.1 wt % | Solubility (40° C.) ([1]; solvent tetrahydrofuran): 12.2 wt %
